In patent US12668600B2 (Kumquat Biosciences Inc., priority 2023, dated 2026):
pIC50: −log10 of the molar value.

Assays:
Assay type in all cases: biochemical
KRAS G12D = target: T1, KRAS G12D (Homo sapiens, UniProt P01116, G12D); assay: HTRF KRAS-SOS1 interaction assay, KRAS G12D; conditions: binned ≤2 μM / >2 μM, read-out: Inhibition of KRAS G12D (IC50)
T1 construct: made in house; host or cells: E. coli, e.g. BL21 (DE3)
How it was run: (§1)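 Inhibition of the KRAS–SOS1 interaction was measured by HTRF (ex 337, em 620/665 nm) after ≥~10 min incubation. Donor: anti-GST-Eu on GST-KRAS; acceptor: anti-6His-XL665 on His-hSOS1, in HEPES pH 7.4 buffer with DTT, BSA and Igepal. Compounds in duplicate at 0.01–10 μM; IC50 from emission ratio.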

KRAS WT = target: T2, KRAS WT (Homo sapiens, UniProt P01116); assay: HTRF KRAS-SOS1 interaction assay, wildtype KRAS; conditions: binned ≤2 μM / >2 μM, read-out: Inhibition of KRAS WT (IC50)
T2 construct: made in house; host or cells: E. coli, e.g. BL21 (DE3)
How it was run: as §1

KRAS G12V = target: T3, KRAS G12V (Homo sapiens, UniProt P01116, G12V); assay: HTRF KRAS-SOS1 interaction assay, KRAS G12V; conditions: binned ≤2 μM / >2 μM, read-out: Inhibition of KRAS G12V (IC50)
T3 construct: made in house; host or cells: E. coli, e.g. BL21 (DE3)
How it was run: as §1

KRAS G12S = target: T4, KRAS G12S (Homo sapiens, UniProt P01116, G12S); assay: HTRF KRAS-SOS1 interaction assay, KRAS G12S; conditions: binned ≤2 μM / >2 μM, read-out: Inhibition of KRAS G12S (IC50)
T4 construct: made in house; host or cells: E. coli, e.g. BL21 (DE3)
How it was run: as §1

T1 sequence (P01116 1-188 isoform P01116-2 G12D): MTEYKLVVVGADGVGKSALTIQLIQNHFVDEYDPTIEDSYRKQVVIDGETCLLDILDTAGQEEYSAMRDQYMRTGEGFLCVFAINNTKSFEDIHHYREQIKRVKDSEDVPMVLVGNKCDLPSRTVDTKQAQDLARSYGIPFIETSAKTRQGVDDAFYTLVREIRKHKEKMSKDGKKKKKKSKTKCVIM
T3 sequence (P01116 1-188 isoform P01116-2 G12V): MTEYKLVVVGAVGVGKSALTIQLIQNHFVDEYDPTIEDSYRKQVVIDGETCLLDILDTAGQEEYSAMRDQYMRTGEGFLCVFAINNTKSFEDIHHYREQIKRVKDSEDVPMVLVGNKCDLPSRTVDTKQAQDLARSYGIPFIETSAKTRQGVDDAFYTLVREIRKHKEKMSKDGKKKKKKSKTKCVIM
T4 sequence (P01116 1-188 isoform P01116-2 G12S): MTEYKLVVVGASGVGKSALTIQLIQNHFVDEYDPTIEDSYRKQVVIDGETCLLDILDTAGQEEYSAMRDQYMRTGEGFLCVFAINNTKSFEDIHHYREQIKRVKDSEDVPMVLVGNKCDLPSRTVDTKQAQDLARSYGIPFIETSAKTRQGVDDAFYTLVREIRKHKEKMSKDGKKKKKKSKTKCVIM
T2 sequence (P01116 1-188 isoform P01116-2): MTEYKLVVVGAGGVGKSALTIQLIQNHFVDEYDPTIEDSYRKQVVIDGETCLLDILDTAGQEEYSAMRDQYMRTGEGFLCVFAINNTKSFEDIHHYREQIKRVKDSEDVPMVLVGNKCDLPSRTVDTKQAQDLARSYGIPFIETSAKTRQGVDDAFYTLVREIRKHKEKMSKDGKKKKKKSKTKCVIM

SMILES	pIC50 (KRAS G12D)	pIC50 (KRAS WT)	pIC50 (KRAS G12V)	pIC50 (KRAS G12S)
N#Cc1c(N)sc2c(F)ccc(-c3c(C(F)(F)F)c4c5c(nc(OC[C@@]67CCCN6C[C@H](F)C7)nc5c3F)N([C@H](CC3CCOCC3)c3cc(F)cnc3N)CCO4)c12 [Compound 634, 2-amino-4-(4-((R)-1-(2-amino-5-fluoropyridin-3-yl)-2-(tetrahydro-2H-pyran-4-yl)ethyl)-10-fluoro-2-(((2R,7aS)-2-fluorotetrahydro-1H-pyrrolizin-7a(5H)-yl)methoxy)-8-(trifluoromethyl)-5,6-dihydro-4H-[1,4]oxazepino[5,6,7-de]quinazolin-9-yl)-7-fluorobenzo[b]thiophene-3-carbonitrile]	≥ 5.70	≥ 5.70	≥ 5.70	≥ 5.70
CCO/N=C(\C)CCC[C@H](c1cccnc1N)N1CCOc2c(C(F)(F)F)c(-c3ccc(F)c4sc(N)c(C#N)c34)c(F)c3nc(OC[C@@]45CCCN4C[C@H](F)C5)nc1c23 (single isomer, unassigned) [Compound 715]	≥ 5.70	≥ 5.70	≥ 5.70	≥ 5.70
N#Cc1c(N)sc2c(F)ccc(-c3c(Cl)c4c5c(nc(OC[C@@]67CCCN6C[C@@]6(CC6(F)F)C7)nc5c3F)N([C@@H](c3cccnc3N)C(F)F)CCO4)c12 [Compound 831, 2-amino-4-(4-((S)-1-(2-aminopyridin-3-yl)-2,2-difluoroethyl)-8-chloro-2-(((1S,7a′S)-2,2-difluorodihydro-1′H,3′H-spiro[cyclopropane-1,2′-pyrrolizin]-7a′(5′H)-yl)methoxy)-10-fluoro-5,6-dihydro-4H-[1,4]oxazepino[5,6,7-de]quinazolin-9-yl)-7-fluorobenzo[b]thiophene-3-carbonitrile]	≥ 5.70	≥ 5.70	≥ 5.70	≥ 5.70
C[C@H](c1nccnc1N)N1CCOc2c(C(F)(F)F)c(-c3ccc(F)c4sc(N)c(C#N)c34)c(F)c3nc(OC[C@@]45CCCN4C[C@H](F)C5)nc1c23 (single isomer, unassigned) [Compound 797]	< 5.70	< 5.70	< 5.70	< 5.70
C[C@H](c1cccnc1N)N1CCOc2c(Cl)c(-c3ccc(F)c4sc(N)c(C#N)c34)c(F)c3nc(OC[C@@H]4CCCN4C)nc1c23 (single isomer, unassigned) [Compound 641]	≥ 5.70	≥ 5.70	≥ 5.70	≥ 5.70
C[C@H](c1cccnc1C(F)F)N1CCOc2c(C(F)(F)F)c(-c3ccc(F)c4sc(N)c(C#N)c34)c(F)c3nc(OC[C@@]45CCCN4C[C@H](F)C5)nc1c23 [Compound 747, 2-amino-4-(4-((R)-1-(2-(difluoromethyl)pyridin-3-yl)ethyl)-10-fluoro-2-(((2R,7aS)-2-fluorotetrahydro-1H-pyrrolizin-7a(5H)-yl)methoxy)-8-(trifluoromethyl)-5,6-dihydro-4H-[1,4]oxazepino[5,6,7-de]quinazolin-9-yl)-7-fluorobenzo[b]thiophene-3-carbonitrile]	≥ 5.70	≥ 5.70	≥ 5.70	≥ 5.70
C=C(F)[C@H](c1cccnc1N)N1CCOc2c(Cl)c(-c3ccc(F)c4sc(N)c(C#N)c34)c(F)c3nc(OC[C@@]45CCCN4C[C@H](F)C5)nc1c23 [Compound 694, 2-amino-4-(4-((S)-1-(2-aminopyridin-3-yl)-2-fluoroallyl)-8-chloro-10-fluoro-2-(((2R,7aS)-2-fluorotetrahydro-1H-pyrrolizin-7a(5H)-yl)methoxy)-5,6-dihydro-4H-[1,4]oxazepino[5,6,7-de]quinazolin-9-yl)-7-fluorobenzo[b]thiophene-3-carbonitrile]	≥ 5.70	≥ 5.70	≥ 5.70	≥ 5.70
CC[C@H](c1cc(F)cnc1N)N1CCOc2c(C(F)(F)F)c(-c3ccc(F)c4sc(N)c(C#N)c34)c(F)c3nc(OC[C@@]45CCCN4C[C@H](F)C5)nc1c23 [Compound 870, 2-amino-4-(4-((R)-1-(2-amino-5-fluoropyridin-3-yl)propyl)-10-fluoro-2-(((2R,7aS)-2-fluorotetrahydro-1H-pyrrolizin-7a(5H)-yl)methoxy)-8-(trifluoromethyl)-5,6-dihydro-4H-[1,4]oxazepino[5,6,7-de]quinazolin-9-yl)-7-fluorobenzo[b]thiophene-3-carbonitrile]	≥ 5.70	≥ 5.70	≥ 5.70	≥ 5.70
N#Cc1c(N)sc2c(F)ccc(-c3c(C(F)(F)F)c4c5c(nc(OC[C@@]67CCCN6C[C@@]6(CC6(F)F)C7)nc5c3F)N([C@H](CC3CCOCC3)c3cccnc3N)CCO4)c12 [Compound 855, 2-amino-4-(4-((R)-1-(2-aminopyridin-3-yl)-2-(tetrahydro-2H-pyran-4-yl)ethyl)-2-(((1S,7a′S)-2,2-difluorodihydro-1′H,3′H-spiro[cyclopropane-1,2′-pyrrolizin]-7a′(5′H)-yl)methoxy)-10-fluoro-8-(trifluoromethyl)-5,6-dihydro-4H-[1,4]oxazepino[5,6,7-de]quinazolin-9-yl)-7-fluorobenzo[b]thiophene-3-carbonitrile]	≥ 5.70	≥ 5.70	≥ 5.70	≥ 5.70
COc1cnc(N)c([C@@H](C)N2CCOc3c(C(F)(F)F)c(-c4ccc(F)c5sc(N)c(C#N)c45)c(F)c4nc(OC[C@@]56CCCN5C[C@H](F)C6)nc2c34)c1 [Compound 815, 2-amino-4-(4-((R)-1-(2-amino-5-methoxypyridin-3-yl)ethyl)-10-fluoro-2-(((2R,7aS)-2-fluorotetrahydro-1H-pyrrolizin-7a(5H)-yl)methoxy)-8-(trifluoromethyl)-5,6-dihydro-4H-[1,4]oxazepino[5,6,7-de]quinazolin-9-yl)-7-fluorobenzo[b]thiophene-3-carbonitrile]	≥ 5.70	≥ 5.70	≥ 5.70	≥ 5.70
C[C@H](Oc1nc2c3c(c(Cl)c(-c4ccc(F)c5sc(N)c(C#N)c45)c(F)c3n1)OCCN2[C@H](C)c1cccnc1N)[C@@H]1CCCN1C (single isomer, unassigned) [Compound 633]	≥ 5.70	≥ 5.70	≥ 5.70	≥ 5.70
C=CC[C@H](c1cccnc1N)N1C[C@H](C)Oc2nc(-c3cc(N)c(F)c(C)c3C(F)(F)F)c(F)c3nc(OC[C@@]45CCCN4C[C@H](F)C5)nc1c23 (single isomer, unassigned) [Compound 746]	≥ 5.70	≥ 5.70	≥ 5.70	≥ 5.70
N#Cc1c(N)sc2c(F)ccc(-c3c(C(F)(F)F)c4c5c(nc(OC[C@@]67CCCN6C[C@H](F)C7)nc5c3F)N([C@H](CCC3CC(F)(F)C3)c3cccnc3N)CCO4)c12 (single isomer, unassigned) [Compound 689]	< 5.70	≥ 5.70	≥ 5.70	≥ 5.70
C[C@H](c1cccnc1N)N1CCOc2c(C(F)(F)F)c(-c3ccc(F)c4sc(N)c(C#N)c34)c(F)c3nc(OC[C@@]45CCCN4CC(CN(C)C)C5)nc1c23 (mixture of isomers) [Compound 721, 2-amino-4-(4-((R)-1-(2-aminopyridin-3-yl)ethyl)-2-(((7aS)-2-((dimethylamino)methyl)tetrahydro-1H-pyrrolizin-7a(5H)-yl)methoxy)-10-fluoro-8-(trifluoromethyl)-5,6-dihydro-4H-[1,4]oxazepino[5,6,7-de]quinazolin-9-yl)-7-fluorobenzo[b]thiophene-3-carbonitrile]	≥ 5.70	≥ 5.70	≥ 5.70	≥ 5.70
CN(C)C(=O)C[C@H](c1cccnc1N)N1CCOc2c(C(F)(F)F)c(-c3ccc(F)c4sc(N)c(C#N)c34)c(F)c3nc(OC[C@@]45CCCN4C[C@H](F)C5)nc1c23 [Compound 810, (3R)-3-(9-(2-amino-3-cyano-7-fluorobenzo[b]thiophen-4-yl)-10-fluoro-2-(((2R,7aS)-2-fluorotetrahydro-1H-pyrrolizin-7a(5H)-yl)methoxy)-8-(trifluoromethyl)-5,6-dihydro-4H-[1,4]oxazepino[5,6,7-de]quinazolin-4-yl)-3-(2-aminopyridin-3-yl)-N,N-dimethylpropanamide]	≥ 5.70	≥ 5.70	≥ 5.70	≥ 5.70
C[C@H](c1cc(Cl)cnc1N)N1CCOc2c(C(F)(F)F)c(-c3ccc(F)c4sc(N)c(C#N)c34)c(F)c3nc(OC[C@@]45CCCN4CC(=C(F)F)C5)nc1c23 [Compound 793, 2-amino-4-(4-((R)-1-(2-amino-5-chloropyridin-3-yl)ethyl)-2-(((S)-2-(difluoromethylene)tetrahydro-1H-pyrrolizin-7a(5H)-yl)methoxy)-10-fluoro-8-(trifluoromethyl)-5,6-dihydro-4H-[1,4]oxazepino[5,6,7-de]quinazolin-9-yl)-7-fluorobenzo[b]thiophene-3-carbonitrile]	≥ 5.70	≥ 5.70	≥ 5.70	≥ 5.70
N#Cc1c(N)sc2cccc(-c3c(Cl)c4c5c(nc(OC[C@@]67CCCN6C[C@H](F)C7)nc5c3F)N([C@@H](c3cccnc3N)C(F)F)CCO4)c12 (single isomer, unassigned) [Compound 672]	≥ 5.70	≥ 5.70	≥ 5.70	≥ 5.70
